Data on 42 compounds can be found in US20060089371A1, “Phenyl or heteroaryl amino alkane derivatives as ip receptor antagonist” (Bayer HealthCare AG, priority 2002, published 2006).

Where a name gives a salt, the structure may show the parent alone.

T1 sequence (P43119 whole entry): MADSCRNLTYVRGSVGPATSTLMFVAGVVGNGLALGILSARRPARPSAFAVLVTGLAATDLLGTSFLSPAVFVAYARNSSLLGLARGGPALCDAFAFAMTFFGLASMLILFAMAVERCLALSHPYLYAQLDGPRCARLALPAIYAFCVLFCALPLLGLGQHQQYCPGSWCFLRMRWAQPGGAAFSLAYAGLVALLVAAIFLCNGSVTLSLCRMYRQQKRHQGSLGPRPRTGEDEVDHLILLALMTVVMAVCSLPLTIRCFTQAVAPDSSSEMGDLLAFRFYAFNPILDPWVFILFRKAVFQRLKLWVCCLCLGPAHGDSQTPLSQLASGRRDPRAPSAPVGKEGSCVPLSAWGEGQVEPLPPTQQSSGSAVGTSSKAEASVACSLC

One data set concerns the target T1, IP receptor (Homo sapiens, UniProt P43119).
T1 construct: one million cells in 160 μl aliquot of cell suspension were put in a well of 96 well plate; host or cells: HEL 92.1.7 human erythroleukemia cells (whole cells)
Briefly: IP receptor binding/cAMP in HEL cells ([3H]-iloprost binding, Assay 1; iloprost-induced cAMP production, Assay 2). To be noted: compounds of about 40 to 90% purity, read-out: In vitro activity grade (IC50 class). How it is done:
[Measurement of the [^3H]-iloprost Binding to HEL Cells] (Assay 1)
A human erythloleukemia cell line, HEL 92.1.7, was purchased from American Type Culture Correction and maintained in RPMI-1640 medium (Gibco BRL) supplemented with 10% fetal calf serum (FCS), 2 mM glutamine, 4.5 g/L glucose, 10 mM Hepes, 1 mM sodium pyruvate, 100 U/ml penicillin, and 100 μg/ml streptomycin in a humidified 5% CO2 atmosphere at 37° C. Cells were collected with centrifugation and washed with binding assay buffer (BAB: 50 mM Tris-HCl, 5 mM MgCl2 (pH 7.5)). Cells were suspended at the density of 6.25×10^6 cells/ml in BAB, and one million cells in 160 μl aliquot of cell suspension were put in a well of 96 well plate (Falcon). Then, 20 μl of compound solution, 100 μM of iloprost (for non-specific binding), or buffer alone (total binding), diluted with 1% DMSO in BAB was added. Finally, another 20 μl containing [^3H]-iloprost (0.02 μCi, 0.5-1 pmol) in BAB was added and incubated at room temperature for 30 min with a gentle shaking. Cell suspension was then transferred to a well of MultiScreen plate with GF/C glass filters (Millipore) to harvest cells. Cells were washed twice with 200 μl of ice-cold BAB and the plate was kept at 55° C. for 30 min to dry filters. The filter in the well was punched out to a counting tube and 2 ml of Ultima Gold XR (Packard) was added. [^3H]-radio activity in the filter was measured by a liquid scintillation counter (Beckman, USA).
[Iloprost-Induced cAMP Production Assay in HEL Cells] (Assay 2)
HEL cells were collected with centrifugation and washed with cAMP assay buffer (CAB: Hank's balanced salt solution, 17 mM Hepes, 0.1% bovine serum albumin, 1 mM IBMX, 0.4% DMSO, and 1 mM L-ascorbic acid sodium salt (pH 7.4)). Cells were suspended at the density of 2.5×10^5 cells/ml in CAB, and twenty thousand cells in 80 μl aliquot of cell suspension were put in a well of 96 well plate (Falcon). Then, 10 μl of compound solution diluted with 1% DMSO in CAB or buffer alone was added. The plate was incubated at 37° C. for 30 min. Then, another 10 μl containing 100 nM iloprost in CAB or buffer alone was added and further incubated at 37° C. for 30 min. cAMP content in the well was measured by a cAMP ELISA kit (Applied Biosystems, USA).
The data corresponds to the compounds as yielded by solid phase synthesis and thus to levels of purity of about 40 to 90%. For practical reasons, the compounds are grouped in three classes of activity as follows: IC50=A<0.1 μM≦B<1 μM≦C
On to `O=C(O)C(Cc1ccccn1)Nc1cc(-c2ccc(COc3ccccc3)cc2)ncn1` (stereo not shown) [Example 20-2], for which the IC50 (as a rule, the point on the concentration scale where inhibition reaches its midpoint) was under 100 nM.

Consider `O=C(O)[C@H](Cc1ccccc1)Nc1cc(-c2ccc(NS(=O)(=O)c3ccccc3)cc2)ncn1` [Example 15-1, N-(6-{4-[(Phenylsulfonyl)amino]phenyl}pyrimidin-4-yl)phenylalanine], for which the IC50 is over 1000 nM.

On to `O=C(O)C(Cc1ccccn1)Nc1cc(-c2ccc(-c3ccccc3)cc2)ncn1` (stereo not shown) [Example 1-53], for which the IC50 was under 100 nM.

Consider `O=C(O)C(Cc1c[nH]c2ccccc12)Nc1cc(-c2ccc(OCc3ccccc3)cc2)ncn1` (stereo not shown) [Example 1-37], for which the IC50 was under 100 nM.

`O=C(O)C(Cc1ccccc1)Nc1cc(-c2ccc(-c3ccc(-c4ccccc4)cc3)cc2)ncn1` (stereo not shown) [Example 11-8]: the IC50 is over 1000 nM.

Regarding `O=C(O)[C@H](Cc1ccccc1)Nc1ccnc(-c2ccc(OCc3ccccc3)cc2)n1` [Example 3-1, N-{2-[4-(Benzyloxy)phenyl]-4-pyrimidinyl}phenylalanine], the 50% inhibitory concentration (IC50) was in the range of 100 to 1000 nM.

As for `N#Cc1ccnc(Oc2ccc(-c3cc(N[C@@H](Cc4ccccc4)C(=O)O)ncn3)cc2)c1` [Example 12-1, N-(6-{4-[(4-cyanopyridin-2-yl)oxy]phenyl}pyrimidin-4-yl)phenylalanine], the IC50 is under 100 nM.

`O=C(O)C(Cc1cccc(OCCN2CCOCC2)c1)Nc1cc(-c2ccc(OCc3ccccc3)cc2)ncn1` (stereo not shown) [Example 4-2]: the IC50 is under 100 nM.

With `O=C(O)C(Cc1ccccc1)Nc1cc(-c2ccc(Oc3ncc(C(F)(F)F)cc3Cl)cc2)ncn1` (stereo not shown) [Example 12-2], the IC50 was over 1000 nM.

As to `O=C(O)[C@H](Cc1ccccc1)Nc1cc(-c2ccc(COc3ccccc3)cc2)ncn1` [Example 20-1, N-{6-[4-(Phenoxymethyl)phenyl]pyrimidin-4-yl}phenylalanine], the IC50 is under 100 nM.

In the case of `O=C(O)C(Cc1ccccn1)Nc1cc(-c2ccc(OCC3CC3)c(F)c2)ncn1` (stereo not shown) [Example 2-43], the IC50 lay in the range of 100 to 1000 nM.

`O=C(O)[C@H](Cc1ccccc1)Nc1cc(-c2ccc(NCC3CC3)cc2)ncn1` [Example 16-1, N-(6-{4-[(Cyclopropylmethyl)amino]phenyl}pyrimidin-4-yl)phenylalanine]: the IC50 fell in the range of 100 to 1000 nM.

For the compound `CCCCC(Nc1cc(-c2ccc(OCC3CC3)c(F)c2)ncn1)C(=O)O` (stereo not shown) [Example 2-42], the IC50 lay in the range of 100 to 1000 nM.

As for `O=C(O)[C@@H](Cc1ccccc1)Nc1cc(-c2ccc(OCc3ccccc3)cc2)ncn1` [Example 1-1, N-{6-[4-(Benzyloxy)phenyl]pyrimidin-4-yl}-D-phenylalanine], the IC50 was under 100 nM.

Consider `O=C(O)C(Cc1ccccc1)Nc1cc(-c2ccc(F)cc2)ncn1` (stereo not shown) [Example 1-52], for which the IC50 was 100 to 1000 nM.

On to `O=C(O)[C@H](Cc1ccccc1)Nc1nccc(-c2ccc(OCc3ccccc3)cc2)n1` [Example 29-1, N-{4-[4-(Benzyloxy)phenyl]pyrimidin-2-yl}phenylalanine], for which the IC50 was under 100 nM.

With `COc1cccc(COc2ccc(-c3cc(NC(Cc4ccccn4)C(=O)O)ncn3)cc2)c1` (stereo not shown) [Example 2-36], the IC50 was under 100 nM.

With `O=C(O)C(Cc1ccccc1)Nc1cc(-c2ccc(OCc3ccccc3)cc2)on1` (stereo not shown) [Example 28-2], the IC50 was under 100 nM.

For `Nc1nc(NC(Cc2ccccc2)C(=O)O)cc(-c2ccc(OCc3ccccc3)cc2)n1` (stereo not shown) [Example 1-38], the IC50 was under 100 nM.

For `Cc1ccc(C#N)c(Oc2ccc(-c3cc(NC(Cc4ccccc4)C(=O)O)ncn3)cc2)n1` (stereo not shown) [Example 12-4], the IC50 is over 1000 nM.

Consider `COc1cc(COc2ccc(-c3cc(NC(Cc4ccccn4)C(=O)O)ncn3)cc2)cc(OC)c1` (stereo not shown) [Example 2-37], for which the IC50 was under 100 nM.

As to `COc1ccc(-c2ccc(-c3cc(N[C@@H](Cc4ccccc4)C(=O)O)ncn3)cc2)cc1` [Example 11-1, N-[6-(4′-Methoxybiphenyl-4-yl)pyrimidin-4-yl]phenylalanine], the IC50 is under 100 nM.

In the case of `CCCOc1ccc(-c2cc(NC(Cc3ccccc3)C(=O)O)ncn2)cc1` (stereo not shown) [Example 2-19], the IC50 was under 100 nM.

As to `O=C(O)C(Cc1ccccc1)Nc1cc(-c2ccc(Oc3cc(C(F)(F)F)ncn3)cc2)ncn1` (stereo not shown) [Example 12-3], the IC50 is 100 to 1000 nM.

For the compound `O=C(O)C(Cc1ccccc1)Nc1nc(-c2ccc(OCc3ccccc3)cc2)cs1` (stereo not shown) [Example 28-4], the IC50 is over 1000 nM.

`O=C(O)C(Cc1ccccc1)Nc1cc(-c2ccc(CNc3ccccc3)cc2)ncn1` (stereo not shown) [Example 19-1, N-{6-[4-(Anilinomethyl)phenyl]pyrimidinyl}phenylalanine]: the IC50 was under 100 nM.

Regarding `O=C(O)[C@H](Cc1ccc(NC2=NCCN2)cc1)Nc1cc(-c2ccc(OCc3ccccc3)cc2)ncn1` [Example 6-1, N-{6-[4-(Benzyloxy)phenyl]pyrimidin-4-yl}-4-(4,5-dihydro-1H-imidazol-2-yl-amino)phenylalanine], the IC50 was under 100 nM.

As to `Cn1nc(-c2ccc(OCc3ccccc3)cc2)cc1NC(Cc1ccccc1)C(=O)O` (stereo not shown) [Example 28-3], the IC50 was over 1000 nM.

With `O=C(O)C(Cc1ccccc1)Nc1cc(-c2ccc(OCC3CC3)c(F)c2)ncn1` (stereo not shown) [Example 2-41], the IC50 was under 100 nM.

Take `O=C(O)C(Cc1ccccc1)Nc1cc(-c2ccc(Oc3ccc4ccccc4n3)cc2)ncn1` (stereo not shown) [Example 12-6]: the IC50 fell in the range of 100 to 1000 nM.

Regarding `CCCC[C@@H](Nc1cc(-c2ccc(OCc3ccccc3)cc2)ncn1)C(=O)O` [Example 1-3, N-{6-[4-(benzyloxy)phenyl]pyrimidin-4-yl}-D-norleucine hydrochloride], the IC50 is under 100 nM.

Consider `O=C(O)C(Cc1ccccc1)Nc1cc(-c2ccc(Oc3ccc(C(F)(F)F)cn3)cc2)ncn1` (stereo not shown) [Example 12-5], for which the IC50 lay in the range of 100 to 1000 nM.

Turning to `O=C(O)C(Cc1ccccc1)Nc1cc(-c2ccc(NCc3ccccc3)cc2)ncn1` (stereo not shown) [Example 13-1, N-{6-[4-Benzylamino)phenyl]pyrimidin-4-yl}phenylalanine hydrochloride], the IC50 was under 100 nM.

Regarding `c1ccc(COc2ccc(-c3cc(NC(Cc4ccccn4)c4nnn[nH]4)ncn3)cc2)cc1` (stereo not shown) [Example 27-2], the half-maximal inhibitory concentration (IC50) lay in the range of 100 to 1000 nM.

As to `CSc1nc(NC(Cc2ccccc2)C(=O)O)cc(-c2ccc(OCc3ccccc3)cc2)n1` (stereo not shown) [Example 1-54], the IC50 was 100 to 1000 nM.

For the compound `O=C(O)C(Cc1ccccc1)Nc1cc(-c2ccccc2)ncn1` (stereo not shown) [Example 1-51], the IC50 lay in the range of 100 to 1000 nM.

Regarding `O=C(O)C(Cc1ccccc1)Nc1cc(-c2ccc(CN3Cc4ccccc4C3)cc2)ncn1` (stereo not shown) [Example 19-3], the IC50 lay in the range of 100 to 1000 nM.

Turning to `CCOc1ccc(-c2cc(NC(Cc3ccccc3)C(=O)O)ncn2)cc1` (stereo not shown) [Example 2-18], the IC50 is under 100 nM.

Take `O=C(O)C(Cc1ccccc1)Nc1cc(-c2ccc(CCc3ccccc3)cc2)ncn1` (stereo not shown) [Example 8-1, N-{6-[4-(2-Phenylethyl)phenyl]pyrimidinyl}phenylalanine]: the IC50 was under 100 nM.

For `O=C(O)C(Cc1ccccc1)Nc1cc(-c2ccc(OCc3ccccc3)cc2)nc(Cl)n1` (stereo not shown) [Example 1-21], the IC50 is under 100 nM.

As for `O=C(O)C(Cc1ccccc1)Nc1cc(-c2ccc(Cl)cc2)ncn1` (stereo not shown) [Example 1-55], the IC50 was 100 to 1000 nM.

System in a further data set: not given
Assay: not given
Conditions: not given
Regarding `O=C(O)C(Cc1ccccn1)Nc1cc(-c2ccc(COc3ccccc3)cc2)ncn1` (stereo not shown) [Example 20-2], the melting point – broadly, the temperature, or range, at which the solid turns liquid – was in the range of 81 to 84 °C.

With `O=C(O)[C@H](Cc1ccccc1)Nc1cc(-c2ccc(Cc3ccccc3)cc2)ncn1` [Example 18-1, N-[6-(4-Benzylphenyl)pyrimidin-4-yl]phenylalanine], the melting point was in the range of 116 to 118 °C.
